{"source": "patent US6432883B1", "about": "“Methods of treating plants with glycolic acid” (Emerald BioAgriculture Corporation, priority 2000, dated 2002)", "format_in_all_cases": "in vivo", "key": {"[1]": {"system": "Erysiphe graminis/Ooidium", "assay": "Wheat pathogen stress: disease index on leaves and heads", "settings": "for Disease Index Heads / Disease Index Leaves: wheat, (1-7 severity rating)(% incidence)/100", "method": "Kulm wheat seed, lot CR, was purchased from Albert Lea Seed House, Albert Lea, Minn. and grown 100 plants per 1 gallon pot, 3 pots per experimental unit and 1 experimental unit per each of 6 replications. The plants were spray-treated first at late-tillering to jointing and again at “in boot” to anthesis with 8 ml solution per pot. Aerial application of the pathogen stress (Erysiphe graminis/Ooidium conidia cultured on other Kulm wheat plants infected by incoming natural inoculum) was made to the plants at 14 days following the first treatment application, in addition to other naturally occurring inoculum.\nTreatments consisted of non-inoculated and inoculated groups of non-treated (NTC), water and 0.05% surfactant-blank (SB) controls and 5, 25, and 50 ppm of glycolic acid.\nDisease assessment was made 3 days prior to head harvesting using a 1-7 based severity scale and % incidence. A disease index [(1-7 based severity rating)(% incidence)/100] was created to better describe the compound effect. The results in Table 3 below show the data for each treatment and the rating scale definitions."}, "Bottytis cinerea": {"system": "Bottytis cinerea", "assay": "Excised lettuce leaves, post-harvest pathogen stress: radius of colonized tissue", "settings": "for Average Disease Progression: radius of colonized tissue 3 days post-inoculation", "method": "Waldmann's MTO dark green Grand Rapids leaf lettuce seed, lot# 15529, was purchased from Johnny's Selected Seeds, Albion, Me., and grown 8 plants per 1 gallon pot. Circular steel-blue blotter papers (Anchor Paper Co, St. Paul, Minn.) were steam autoclaved and fitted into disposable petri dishes. […]\nBlotters were saturated with 4.5 ml sterile tap water. Individual leaves (20) were excised and placed into a treatment solution for 5-10 seconds or left non-treated. Excess fluid was removed from the leaf surface. These leaves were then placed singly, 1 leaf per dish and adaxial side up, on the moist blotters. Dish lids were replaced and dishes stacked, bagged and returned to the petri dish box for 24 hour dark storage at room temperature (65-68° F.).\nInoculum (Bottytis cinerea) was grown on potato dextrose agar (PDA) plates until dense conidia production was present. These were blended into a paste with non-inoculated PDA and sterile tap water. Inoculum concentration was determined by dilution plating to be 1960 cfu/ml.\nA small spot of inoculum paste was dotted onto the center of 16 of the 20 leaf pieces per treatment stack 24 hours after test substance application.\nDisease progression assessment was made at 3 days±2 hours post-inoculation by measuring the radius of colonized tissue in mm."}, "Sclerotinia minor": {"system": "Sclerotinia minor", "assay": "Lettuce pathogen stress: spray treatment, then stem inoculation, disease severity rating", "settings": "for Disease Severity Rating: lettuce, 1-9 rating scale", "method": "Waldmann's MTO dark green Grand Rapids leaf lettuce seed, lot#15529, was purchased from Johnny's Selected Seeds, Albion, Me., and grown 8 plants per 1 gallon pot, 1 pot per experimental unit and 3 experimental units per each of 4 replications. The plants were spray-treated first following “row closure” and again 14 days later with 8 ml per pot. The pathogen stress (Sclerotinia minor hyphal fragments and sclerotia, cultured on potato dextrose agar) was applied to the plant stems at the soil/stem interface at 14 days following the second treatment application.\nTreatments consisted of non-inoculated and inoculated groups of non-treated (NTC), water and 0.05% surfactant-blank (SB) controls and 15 and 60 ppm of glycolic acid.\nDisease assessment was made just prior to harvest by means of a 1-9 based rating scale. Extensive decomposition of the controls made accurate yield fresh and dry weights impossible. The results in Table 1 below show the data for each treatment and the rating scale definitions."}, "cabbage": {"system": "cabbage", "assay": "Cabbage drought stress: fresh and dry weights", "settings": "drought, water withheld 13 days, 5, 15, 50 ppm", "method": "Market Prize, F1 cabbage seed, lot 88955, as described in example 7, was treated identically as in example 7, except that drought stress was imposed by withholding water 7 days following the second spray and continuing to withhold water for 13 sequential days thereafter. Drought tolerance was assessed by measuring both the fresh and dried weights of the plants."}}, "note": "Marks after values point to notes of the source that are not given here.", "data": [{"molecule": "O=C(O)CO", "note": "[glycolic acid]", "values": [{"measurement": "disease severity observed in wheat heads versus control wheat", "setting": "[1]; 5 ppm and 25 ppm, α=0.05", "value": "statistically significant (α=0.05) decrease"}, {"measurement": "Disease Index Heads", "setting": "[1]; 5 ppm spray", "value": "2.5*"}, {"measurement": "Disease Index Leaves", "setting": "[1]; 5 ppm spray", "value": "7.6*"}, {"measurement": "Disease Index Heads", "setting": "[1]; 25 ppm spray", "value": "13.4*"}, {"measurement": "Disease Index Leaves", "setting": "[1]; 25 ppm spray", "value": "7.0*"}, {"measurement": "Disease Index Heads", "setting": "[1]; 50 ppm spray", "value": "18.6*"}, {"measurement": "Disease Index Leaves", "setting": "[1]; 50 ppm spray", "value": 36.9}, {"measurement": "disease severity in wheat leaves versus control wheat", "setting": "[1]; all glycolic acid treated wheat, α=0.05", "value": "statistically significant (α=0.05) decrease"}, {"measurement": "Average Disease Progression", "setting": "Bottytis cinerea; 10 ppm leaf dip", "value": "4.0* mm"}, {"measurement": "disease severity versus control lettuce", "setting": "Bottytis cinerea; 10 ppm, lettuce leaves, α=0.05", "value": "statistically significant (α=0.05) decrease"}, {"measurement": "Average Disease Progression", "setting": "Bottytis cinerea; 25 ppm leaf dip", "value": 9.8, "unit": "mm"}, {"measurement": "Average Disease Progression", "setting": "Bottytis cinerea; 75 ppm leaf dip", "value": 9.4, "unit": "mm"}, {"measurement": "Average Disease Progression", "setting": "Bottytis cinerea; 150 ppm leaf dip", "value": 13.6, "unit": "mm"}, {"measurement": "Average Disease Progression", "setting": "Bottytis cinerea; 500 ppm leaf dip", "value": 12.1, "unit": "mm"}, {"measurement": "Average Disease Progression", "setting": "Bottytis cinerea; 1000 ppm leaf dip", "value": 11.6, "unit": "mm"}, {"measurement": "Disease Severity Rating", "setting": "Sclerotinia minor; 15 ppm spray", "value": "3.0*"}, {"measurement": "Disease Severity Rating", "setting": "Sclerotinia minor; 60 ppm spray", "value": "3.5*"}, {"measurement": "disease severity versus control lettuce", "setting": "Sclerotinia minor; all glycolic acid treatments (15 and 60 ppm), α=0.05", "value": "statistically significant (α=0.05) decrease"}, {"measurement": "fresh weight of the cabbage compared to controls", "setting": "cabbage; FIG. 3", "value": "statistically significantly increased"}, {"measurement": "dry weight of the cabbage compared to controls", "setting": "cabbage; FIG. 4", "value": "statistically significantly increased"}]}]}
